Reference: patent publication US20090031435A1, “SMA Therapy and Cell Based Assay” (priority 2002, published 2009)

Experiments:
[1] = system: SMN2-luciferase reporter construct; experiment: SMN2-luciferase splicing reporter luminescence assay in C33A cells; assay type: cell-based, human; conditions: for SMN2 luminescence/SMN1 luminescence: highest point of the curve of increase in SMN2-luciferase luminescence minus increase in SMN1-luciferase luminescence (treated/control), dilution series max 10 uM; for luminescence from the SMN2-luciferase reporter construct: screen at 10 μM, ~48 hr
Method: (§1) In a screen to identify compounds capable of enhancing the inclusion of exon 7 in SMN2 mRNA, cells of the human cervical carcinoma cell line C33A (ATCC#HTB-31) were stably transformed with an SMN fragment/luciferase reporter gene construct that incorporated exons 6-8 of SMN1 or SMN2 for use in a high-throughput screening assay. These cells were cultured in Dulbecco's Modified Eagle's Medium (DMEM) with 10% Fetal Bovine Serum (Sigma F 2442), 50 units/mL penicillin 50 μg/mL streptomycin sulfate and 400 mg/L G418 (i.e. Geneticin, Gibco, cat. No. 11811-031). The assay medium used to perform the luciferase assay was identical to the growth medium except the G418 selection agent was omitted. To perform the luciferase assay, a single reagent (25 mM glycylglycine, 15 mM magnesium sulfate, 4 mM EGTA, adjusted to pH 7.85, to which is added 10 μM D-luciferin (Sigma L9504), 10 mM dithiothreitol (DTT, Roche Molecular Biochemicals 100034), 2 mM adenosine 5′-triphosphate (ATP, Sigma A7699), 50 μM CoenzymeA, sodium salt (Sigma C 3144) and 1.5% Triton X-100) was used to lyse the cells and to initiate the luciferase reaction.
(§2) Using this cell-based luminescence assay, a screen was performed to identify compounds that modulate SMN splicing. Stably transfected C33A cells (˜35-40 M cells/flask) were cultured, then removed from T-175 culture flasks with 3 mL trypsin, and quenched with 7 mL assay medium. The cells were spun down and re-suspended in assay medium to a concentration of ˜200,000 cells/mL. Cells were immediately seeded in 384-well assay plates (Nalge Nunc white plates, #164610) 57 μL/well for a cell density of 11,000 cells/well. Compounds from a library obtained from the National Institute of Neurological Disorders and Stroke (NINDS) were added to the cells to a final concentration of 10 μM (diluted with assay medium by 1000× from the 10 mM stock solution in DMSO). The cells were incubated with the test compounds at 37° C. for ˜48 hr. A Zymark Sciclone ALH was used for cell seeding and compound addition. After incubation, the assay plates were cooled to room temperature for ˜10-60 minutes. The medium and compounds were aspirated from the wells, followed by 6 rinse/aspirate cycles with a PBS solution. 53 μL of the luciferase assay reagent was added and the plate was immediately transferred to a luminescence plate reader. The plate was shaken for 30 minutes prior to reading. The plate processing steps were performed on an integrated Packard Minitrak/Sidetrak platereader.
(§3) To analyze the data, the dark count background was first subtracted from all luminescence readings. The signal from each compound treated well was divided by the average of 48 control wells on the same 384-well plate. Each compound library plate was tested in triplicate with each of the two cell lines, and the entire assay was repeated on two separate occasions, yielding six readings for each compound for each cell line. The highest and lowest of the six normalized readings were dropped and the remaining four readings averaged. These average values of compound-treated luminescence versus control luminescence are denoted “Xnorm(y)”, where X indicates the cell line, SMN1-luciferase or SMN2-luciferase, and y represents the compound. The difference of [SMN2norm(y)−SMN1norm(y)] measures the selective change in SMN2-luciferase expression versus change in SMN1 luciferase production upon treatment with compound y. This is the final score that is output.
(§4) These dilutions were created with a Zymark Sciclone ALH Z-8. Once created, the assay was performed as described for the screening process. Concentrations required to achieve 50% of the maximally achievable effect for each compound (“EC50”) were calculated using Xlfit (IDBS).

[2] = system: SMN1-luciferase control; experiment: SMN1-luciferase control splicing reporter luminescence assay in C33A cells; assay type: cell-based, human
Method: as §1, §2, §3, §4

Row | Compound | Effect on splicing of SMN2-luciferase in C33A cells [1] | Effect on splicing of SMN1-luciferase control in C33A cells [2] | SMN2 luminescence/SMN1 luminescence [1] | luminescence from the SMN2-luciferase reporter construct [1]
1 | COc1ccc2c(c1)c(CC(=O)O)c(C)n2C(=O)c1ccc(Cl)cc1 [1-(4-Chlorobenzoyl)-5-methoxy-2-methyl-3-indoleacetic acid] | None | None |  | 
2 | CN1C(=O)c2ccc(-c3ccccc3)cc2C1(O)C(C)(C)C (stereo not drawn) [1-tert-butyl-1-hydroxy-2-methyl-6-phenyl-3-isoindolinone] | None |  |  | 
3 | CC(O)c1ccc(N2Cc3ccccc3C2=O)cc1 (stereo not drawn) [1H-isoindol-1-one, 2,3-dihydro-2-[4-91-hydroxyethyl)phenyl]] | Increased | Increased |  | 
4 | O=C1c2ccccc2CN1c1ccccc1 [1H-isoindol-1-one, 2,3-dihydro-2-phenyl] | None | None |  | 
5 | O=C1NCc2ccccc21 [1H-isoindol-1-one, 2,3-dihydro-] | None | None |  | 
6 | O=C(O)CCC(C(=O)O)N1Cc2ccccc2C1=O (stereo not drawn) [2-Phthalimidino-glutaric acid] | None | None |  | 
7 | O=C(O)C(Cc1ccccc1)N1Cc2ccccc2C1=O (stereo not drawn) [2H-isoindol-2-acetic acid, 1,3-dihydro-1-oxo-alpha-(phenylmethyl)- . . .] | None | None |  | 
8 | O=C(O)CCCN1C(=O)c2ccccc2C1=O [2H-isoindol-2-butanoic, 1,3-dihydro-1,3-dioxo] | None | None |  | 
9 | Cc1ccc(C(CC(=O)O)N2Cc3ccccc3C2=O)cc1 (stereo not drawn) [2H-isoindol-2-propanoic acid, 1,3-dihydro-beta-(4-methylphenyl)-1-oxo] | None | None |  | 
10 | CCC(CC)(CC)C1(O)c2ccccc2C(=O)N1C (stereo not drawn) [3-(1,1-diethylpropyl)-3-hydroxy-2-methyl-1-isoindolinone] | None |  |  | 
11 | CN1C(=O)c2ccccc2C1(O)C(C)(c1ccccc1)c1ccccc1 (stereo not drawn) [3-(1,1-diphenylethyl)-3-hydroxy-2-methyl-1-isoindolinone] | None |  |  | 
12 | Cc1ccc(N2C(=O)c3ccccc3C2C(=O)c2ccc(O)cc2O)cc1 (stereo not drawn) [3-(2,4-hydroxybenzoyl)-2-(4-methylphenyl)-1-isoindolinone] | None |  |  | 
13 | Cc1ccc(N2C(=O)c3ccccc3C2C(=O)c2cc(O)ccc2O)cc1 (stereo not drawn) [3-(2,5-hydroxybenzoyl)-2-(4-methylphenyl)-1-isoindolinone] | None |  |  | 
14 | Cc1ccc(N2C(=O)c3ccccc3C2C(=O)c2cc(C)ccc2O)cc1 (stereo not drawn) [3-(2-hydroxy-5-methylbenzoyl)-2-(4-methylphenyl)-1-isoindolinone] | None |  |  | 
15 | O=C1c2ccccc2C(O)(c2ccc(Cl)cc2)N1OC1CCCCO1 (stereo not drawn) [3-(4-chlorophenyl)-3-hydroxy-2-(tetrahydropyran-2-yloxy)-1-isoindolinone] | None |  |  | 
16 | CC[C@@]1(O)C(=O)OCc2c1cc1n(c2=O)Cc2cc3ccccc3nc2-1 [Camptothecin, camptothecin] |  |  | 0.4 | increased luminescence
17 | CO[C@@]1(NC(=O)Cc2cccs2)C(=O)N2C(C(=O)O)=C(COC(N)=O)CS[C@@H]21 [Cefoxitin sodium, cefoxitin sodium] |  |  | 0.3 | increased luminescence
18 | O=C1C=C2C(=CCOC2O)O1 (stereo not drawn) [Patulin, patulin] |  |  | 0.7 | increased luminescence
19 | [O-][n+]1ccccc1[S-].[O-][n+]1ccccc1[S-].[Zn+2] [Pyrithione zinc, pyrithione zinc] |  |  | 1.0 | increased luminescence
20 | CC(=O)Nc1ccc(O)cc1 [acetominophen] |  |  |  | None of these compounds resulted in increased luminescence
21 | NC12CC3CC(CC(C3)C1)C2 [amantadine] |  |  | 0.3 | increased luminescence
22 | CC(=O)Oc1ccccc1C(=O)O [aspirin] |  |  |  | None of these compounds resulted in increased luminescence
23 | CC(C(=O)O)c1cccc(Oc2ccccc2)c1 (stereo not drawn) [fenoprofen] |  |  |  | None of these compounds resulted in increased luminescence
24 | CC(C(=O)O)c1ccc(-c2ccccc2)c(F)c1 (stereo not drawn) [flurbiprofen] |  |  |  | None of these compounds resulted in increased luminescence
25 | CC(C)Cc1ccc(C(C)C(=O)O)cc1 (stereo not drawn) [ibuprofen] |  |  |  | None of these compounds resulted in increased luminescence
26 | CC(C(=O)O)c1cccc(C(=O)c2ccccc2)c1 (stereo not drawn) [ketoprofen] |  |  |  | None of these compounds resulted in increased luminescence
27 | CC(C(=O)O)c1ccc(C(=O)c2cccs2)cc1 (stereo not drawn) [suprofen] |  |  |  | None of these compounds resulted in increased luminescence
28 | Methyl 2-[4-(1,3-dioxo-2,3-dihydro-1H-isoindol-2-yl)-3-me . . . | None |  |  | 
29 | Methyl 2-[4-(1,3-dioxo-2,3-dihydro-1H-isoindol-2-yl)phenyl . . . | None |  |  | 
